Broadly, the IC50 is the point on the concentration scale where inhibition reaches its midpoint. Read a low IC50 as greater potency in that assay.

Consider eight compounds from article PMC4199632, “Exploring the Anti-Cancer Activity of Novel Thiosemicarbazones Generated through the Combination of Retro-Fragments: Dissection of Critical Structure-Activity Relationships” (PLoS ONE, 2014).

For the first experiment, the system named is SK-N-MC neuroepithelioma cells. Nature of the experiment: Proliferation assay (MTT, 72 h). Type of experiment: cell-based. The following applies: Homo sapiens, 72 h incubation, mean ±SD (3 experiments). Summed up: (§1)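 Cells seeded 24 h before treatment, then exposed at 37 °C for 72 h (SK-N-MC, Raji, HeLa) or 96 h (HCT116, NHDF); final DMSO <0.05%. Read-outs: MTT at 570 nm (SK-N-MC, Raji), crystal violet at 595 nm (HeLa), MTS at 490 nm (HCT116, NHDF); IC50 is 50% absorbance versus untreated control, triplicates repeated three times.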
Compound `CN(C(=S)N/N=C/c1ccc2ccccc2n1)C1CCCCC1` [2f] showed an IC50 of 0.82 ± 0.19 µM.
Turning to `S=C(NN=C(c1ccccn1)c1ccccn1)N1CCN(c2cnccn2)CC1` [1e], inhibition was half-maximal at 0.07 ± 0.05 µM (IC50).
For the compound `CN(C)C(=S)NN=C(c1ccccn1)c1ccccn1` [Dp44mT, di-2-pyridylketone 4,4-dimethyl-3-thiosemicarbazone, reference compound], the IC50 came out at 0.012 ± 0.001 µM.
The same measure, in the same setting: the same measure for `S=C(N/N=C/c1ccc2ccccc2n1)N1CCN(c2ccccc2)CC1` [2b]: 0.33 ± 0.02 µM.
As for `CC(=O)N(O)CCCCCNC(=O)CCC(=O)N(O)CCCCCNC(=O)CCC(=O)N(O)CCCCCN` [DFO, desferrioxamine, reference compound], the concentration for half-maximal inhibition (IC50) stood at 15.1 ± 5.2 µM.
The same measure, in the same setting: the same measure for `CN(C(=S)N/N=C/c1cnc2ccccc2n1)C1CCCCC1` [5f]: 2.04 ± 0.34 µM; for `CCN1CCN(C(=S)N/N=C/c2ccc3ccccc3n2)CC1` [2a]: 2.54 ± 0.86 µM; for `CN(C(=S)N/N=C/c1ccccc1O)C1CCCCC1` [6f]: above 6.25 µM.

The subject of the next experiment is Raji Burkitt's lymphoma cells. Nature of the experiment: Proliferation assay (MTT, 72 h). Type of experiment: cell-based. The following applies: Homo sapiens, 72 h incubation, mean ±SD (3 experiments). Summed up: as §1
`CN(C(=S)N/N=C/c1ccc2ccccc2n1)C1CCCCC1` [2f] yielded an IC50 of 0.81 ± 0.1 µM.
On the same count and under the same terms, the same measure for `S=C(NN=C(c1ccccn1)c1ccccn1)N1CCN(c2cnccn2)CC1` [1e]: 0.04 ± 0.02 µM; for `CN(C)C(=S)NN=C(c1ccccn1)c1ccccn1` [Dp44mT, di-2-pyridylketone 4,4-dimethyl-3-thiosemicarbazone, reference compound]: 0.007 ± 0.001 µM; for `S=C(N/N=C/c1ccc2ccccc2n1)N1CCN(c2ccccc2)CC1` [2b]: 0.04 ± 0.01 µM.
`CC(=O)N(O)CCCCCNC(=O)CCC(=O)N(O)CCCCCNC(=O)CCC(=O)N(O)CCCCCN` [DFO, desferrioxamine, reference compound]: the IC50 is 4.74 ± 1.8 µM.
Same read-out and setting: for `CN(C(=S)N/N=C/c1cnc2ccccc2n1)C1CCCCC1` [5f] the value was 0.72 ± 0.29 µM; for `CCN1CCN(C(=S)N/N=C/c2ccc3ccccc3n2)CC1` [2a], 0.06 ± 0.02 µM.
Still for that read-out and setting: the same measure for `CN(C(=S)N/N=C/c1ccccc1O)C1CCCCC1` [6f]: 0.69 ± 0.51 µM.

The next experiment deals with SK-N-MC cells. Nature of the experiment: Inhibition of cellular 59Fe uptake from 59Fe2-Tf. Type of experiment: cell-based, human. The following applies: chelator 25 µM. On the procedure: The iron transport protein, Tf (Sigma-Aldrich), was labeled with ^59Fe (PerkinElmer Life and Analytical Sciences, Boston, MA) to form ^59Fe2-Tf using standard methods, [7]. Unbound ^59Fe was removed by passage through a Sephadex G25 column and was followed by exhaustive dialysis, [7].
The ability of the chelators to prevent the cellular uptake of ^59Fe from ^59Fe2-Tf was examined using standard methods, [14], [17], [18], [50]. A monolayer of SK-N-MC cells was incubated with medium containing ^59Fe2-Tf (0.75 µM) and the chelator (25 µM) for 3 h at 37°C. The medium was then removed and the cells were washed four times with ice-cold PBS. The cells were then incubated for 30 min at 4°C with the general protease, Pronase (1 mg/mL; Sigma-Aldrich), to remove membrane-bound ^59Fe. The cells were removed using a plastic spatula and centrifuged at 14,000 rpm/1 min to separate internalized from membrane-bound ^59Fe. The cell pellet was resuspended in 1 mL of PBS and the internalized ^59Fe was measured on a γ-scintillation counter. Internalized ^59Fe uptake was calculated as a percentage of the control (medium alone). Again, the novel ligands were compared to DFO and Dp44mT as their ability to inhibit cellular ^59Fe uptake has been extensively characterized using SK-N-MC cells, [14], [17], [18], [50].
Figure 8 Effect of (A) series 1, (B) series 2, (C) series 3, (D) series 4, (E) series 5 and (F) series 6 chelators, relative to the controls DFO and Dp44mT, on ^59Fe uptake from ^59Fe-transferrin by SK-N-MC cells. Cells were incubated for 3 h/37°C with ^59Fe-transferrin (0.75 µM) in the presence or absence of the chelators (25 µM). At the end of this incubation, cells were washed 4 times with ice-cold PBS. Internalization of ^59Fe was assessed by incubation for 30 min/4°C with the protease, Pronase (1 mg/mL). Cellular ^59Fe was then assessed using a γ-scintillation counter. Results are mean ±SD (3 experiments).
Regarding `CN(C(=S)N/N=C/c1ccc2ccccc2n1)C1CCCCC1` [2f], the “Inhibition of 59Fe uptake compared with controls” value is given as “comparable inhibition of ^59Fe uptake to that of DFO”.
The same measure, in the same setting: the same measure for `S=C(N/N=C/c1ccc2ccccc2n1)N1CCN(c2ccccc2)CC1` [2b]: “comparable inhibition of ^59Fe uptake to that of DFO”; for `CN(C(=S)N/N=C/c1cnc2ccccc2n1)C1CCCCC1` [5f]: “comparable inhibition of ^59Fe uptake to that of DFO”.
With `CCN1CCN(C(=S)N/N=C/c2ccc3ccccc3n2)CC1` [2a], the “Inhibition of 59Fe uptake compared with controls” value was “comparable ability to inhibit ^59Fe uptake to the control medium”.

The same experiment, now with this note: chelator 25 µM, 59Fe2-Tf 0.75 µM, 3 h/37°C.
Turning to `CN(C)C(=S)NN=C(c1ccccn1)c1ccccn1` [Dp44mT, di-2-pyridylketone 4,4-dimethyl-3-thiosemicarbazone, reference compound], the “Internalized 59Fe uptake from 59Fe2-Tf (% of the control)” value is on record as 6%.
Regarding `CC(=O)N(O)CCCCCNC(=O)CCC(=O)N(O)CCCCCNC(=O)CCC(=O)N(O)CCCCCN` [DFO, desferrioxamine, reference compound], the “Internalized 59Fe uptake from 59Fe2-Tf (% of the control)” value stood at 83%.
Still for that read-out and setting: the same measure for `CN(C(=S)N/N=C/c1ccccc1O)C1CCCCC1` [6f]: 3.6–11.5%.

In a further experiment the test system is HCT116 p53−/− colon cancer cells. Briefly: Proliferation assay (MTS, 96 h). Format: cell-based, human. The following applies: Homo sapiens, HCT-116, 96 h, 96 h incubation, MTS; mean ±SD (3 experiments). The gist of the method:
(§2)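 HCT116 p53+/+, HCT116 p53−/− and NHDF cells were seeded 24 h before a 96 h compound exposure at 37 °C, with final DMSO <0.05%. Viability was read by MTS absorbance at 490 nm after 1 h; IC50 was the concentration reducing absorbance to 50% of untreated control.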
Consider `CN(C(=S)N/N=C/c1ccc2ccccc2n1)C1CCCCC1` [2f], for which the IC50 was 0.035 ± 0.003 µM.
The compound `S=C(NN=C(c1ccccn1)c1ccccn1)N1CCN(c2cnccn2)CC1` [1e] came in with an IC50 of 0.031 ± 0.003 µM.
Same read-out and setting: the same measure for `CN(C)C(=S)NN=C(c1ccccn1)c1ccccn1` [Dp44mT, di-2-pyridylketone 4,4-dimethyl-3-thiosemicarbazone, reference compound]: 0.005 ± 0.002 µM; for `S=C(N/N=C/c1ccc2ccccc2n1)N1CCN(c2ccccc2)CC1` [2b]: 0.09 ± 0.04 µM; for `CC(=O)N(O)CCCCCNC(=O)CCC(=O)N(O)CCCCCNC(=O)CCC(=O)N(O)CCCCCN` [DFO, desferrioxamine, reference compound]: above 25 µM.
The same measure, in the same setting: the same measure for `CN(C(=S)N/N=C/c1cnc2ccccc2n1)C1CCCCC1` [5f]: 1.02 ± 0.54 µM.
Still for that read-out and setting: for `CCN1CCN(C(=S)N/N=C/c2ccc3ccccc3n2)CC1` [2a] the value was 3.55 ± 1.23 µM.
In turn, `CN(C(=S)N/N=C/c1ccccc1O)C1CCCCC1` [6f] registered an IC50 above 25 µM.

The same experiment, now with this note: NHDF cell IC50 divided by HCT116 p53−/− IC50.
For `CN(C(=S)N/N=C/c1ccc2ccccc2n1)C1CCCCC1` [2f], the “Therapeutic index NHDF vs. HCT116 p53−/−” value came to 0.4.
On the same count and under the same terms, the same measure for `CN(C)C(=S)NN=C(c1ccccn1)c1ccccn1` [Dp44mT, di-2-pyridylketone 4,4-dimethyl-3-thiosemicarbazone, reference compound]: 3076; for `S=C(N/N=C/c1ccc2ccccc2n1)N1CCN(c2ccccc2)CC1` [2b]: 0.4.

In the next experiment the test system is HCT116 p53+/+ colon cancer cells. Nature of the experiment: Proliferation assay (MTS, 96 h). Type of experiment: cell-based, human. The following applies: Homo sapiens, HCT-116; 96 h incubation, MTS; mean ±SD (3 experiments). Summed up: as §2
The compound `CN(C(=S)N/N=C/c1ccc2ccccc2n1)C1CCCCC1` [2f] came in with an IC50 of 0.026 ± 0.001 µM.
Compound `S=C(NN=C(c1ccccn1)c1ccccn1)N1CCN(c2cnccn2)CC1` [1e] showed a half-inhibitory concentration (IC50) of 0.038 ± 0.003 µM.
Same read-out and setting: the same measure for `CN(C)C(=S)NN=C(c1ccccn1)c1ccccn1` [Dp44mT, di-2-pyridylketone 4,4-dimethyl-3-thiosemicarbazone, reference compound]: 0.002 ± 0.001 µM; for `S=C(N/N=C/c1ccc2ccccc2n1)N1CCN(c2ccccc2)CC1` [2b]: 0.042 ± 0.003 µM.
Same read-out and setting: the same measure for `CC(=O)N(O)CCCCCNC(=O)CCC(=O)N(O)CCCCCNC(=O)CCC(=O)N(O)CCCCCN` [DFO, desferrioxamine, reference compound]: above 25 µM; for `CN(C(=S)N/N=C/c1cnc2ccccc2n1)C1CCCCC1` [5f]: 1.24 ± 0.45 µM.
The same measure, in the same setting: the same measure for `CCN1CCN(C(=S)N/N=C/c2ccc3ccccc3n2)CC1` [2a]: 1.44 ± 0.69 µM.
`CN(C(=S)N/N=C/c1ccccc1O)C1CCCCC1` [6f] registered a half-inhibitory concentration (IC50) above 25 µM.

Still in this experiment, the particulars now being: NHDF cell IC50 divided by HCT116 p53+/+ IC50.
Regarding `CN(C(=S)N/N=C/c1ccc2ccccc2n1)C1CCCCC1` [2f], the “Therapeutic index NHDF vs. HCT116 p53+/+” value is 0.6.
On the same count and under the same terms, for `CN(C)C(=S)NN=C(c1ccccn1)c1ccccn1` [Dp44mT, di-2-pyridylketone 4,4-dimethyl-3-thiosemicarbazone, reference compound] the value was 7690; for `S=C(N/N=C/c1ccc2ccccc2n1)N1CCN(c2ccccc2)CC1` [2b], 0.8.

For a further experiment, the system named is normal human dermal fibroblast (NHDF) cells. Briefly: Proliferation assay (MTS, 96 h), normal mortal cells. The following applies: 96 h incubation, mean ±SD (3 experiments). Type of experiment: cell-based. The gist of the method:
as §2
The compound `S=C(N/N=C/c1ccc2ccccc2n1)N1CCN(c2ccccc2)CC1` [2b] had an IC50 of 0.033 ± 0.007 µM.

The experiment is the same for the next values; noted with them: Homo sapiens, NHDF, 96 h, 96 h incubation, mean ±SD (3 experiments).
Consider `CN(C(=S)N/N=C/c1ccc2ccccc2n1)C1CCCCC1` [2f], for which the half-inhibitory concentration (IC50) worked out at 0.015 ± 0.005 µM.
Consider `S=C(NN=C(c1ccccn1)c1ccccn1)N1CCN(c2cnccn2)CC1` [1e], for which the IC50 was 0.014 ± 0.003 µM.
The compound `CN(C)C(=S)NN=C(c1ccccn1)c1ccccn1` [Dp44mT, di-2-pyridylketone 4,4-dimethyl-3-thiosemicarbazone, reference compound] had an IC50 of 15.4 ± 5.06 µM.
The same measure, in the same setting: for `CC(=O)N(O)CCCCCNC(=O)CCC(=O)N(O)CCCCCNC(=O)CCC(=O)N(O)CCCCCN` [DFO, desferrioxamine, reference compound] the value was above 25 µM; for `CN(C(=S)N/N=C/c1cnc2ccccc2n1)C1CCCCC1` [5f], 0.5 ± 0.21 µM.
For `CCN1CCN(C(=S)N/N=C/c2ccc3ccccc3n2)CC1` [2a], the IC50 was 9.62 ± 1.8 µM.
`CN(C(=S)N/N=C/c1ccccc1O)C1CCCCC1` [6f] showed an IC50 above 25 µM.
